Article PMC6588697, “Lugdunin amplifies innate immune responses in the skin in synergy with host- and microbiota-derived factors” (Nature Communications, 2019)
“And” between values parts separate entries of the source, which are not always exact repeats. Equal entries are not always repeated.

Experiments:
HEK293 cells = assay: CXCL8 expression in HEK-control cells (qRT-PCR); type: cell-based, human; settings: 5 h, Fig 2b
Experimental: Fig. 2 Induction of chemokine (C-X-C motif) ligand 8/macrophage inflammatory protein-2 (CXCL8/MIP-2) by lugdunin is TLR2/MyD88-dependent. a HEK-control or HEK-TLR2 cells were treated with 2 μM lugdunin for 5 h and subsequently the CXCL8 concentration in the supernatant was analyzed by LEGENDplex^TM (BioLegend). Shown is one representative experiment of three independent experiments with two technical replicates ± s.e.m. b HEK-control or HEK-TLR2 cells were treated with increasing concentrations of lugdunin for 5 h and subsequently expression of CXCL8 was analyzed and normalized to actin. Shown is one representative experiment of three independent experiments with two technical replicates ± s.e.m. c Schematic overview of the mouse experiments: 6–8-week-old female C5BL/6 WT, MyD88-knockout (ko), or 5xTLR-ko mice were epicutaneously treated with 1.5 µg lugdunin or phosphate-buffered saline (PBS) as a control. After 24 h, mice were euthanized, 4 mm skin punches were taken, and further cultured in vitro for 10 h followed by cytokine analysis of the culture supernatant by LEGENDplex^TM (BioLegend). d, e Shown are the mean concentrations of IL-1α (d) or MIP-2 (e) in the skin culture supernatant of two skin punches from four mice each ± s.e.m. Significant differences to control treatments were analyzed by an unpaired two-tailed t test (*P < 0.05; **P < 0.01; ***P < 0.001). f Representative MIP-2-stained paraffin-embedded mouse skin sections. Scale bar, 100 µM. Source data are provided as a Source Data file
Quantitative reverse transcription-polymerase chain reaction (qRT-PCR) was performed in 10 µL reaction volume with SYBR^TM Green PCR Master Mix (Thermo Fisher) according to the manufacturer’s instructions using a LightCycler 96 (Roche Life Science). The initial denaturation step was at 95 °C for 5 min, followed by 40 cycles with 10 s each for the denaturation step at 95 °C, the annealing at individual temperature, and the elongation at 72 °C. Primer sequences and respective annealing temperatures are listed in Supplementary Table 1. […]

PHKs = assay: Viability assay (MUH) in PHKs; type: cell-based, human
Experimental: Effects of the used peptides on keratinocytes, PBMCs, and nasal and tracheal epithelial cell viability were tested using 4-methylumbelliferyl heptanoate (MUH). Briefly, cells were treated with peptides and respective peptide combinations for 24 h, followed by incubation with 100 μg/mL MUH (Sigma-Aldrich) in PBS for 1 h at 37 °C. The absolute fluorescence intensity at λex of 355 nm and λem of 460 nm was measured using a Fluoroskan II (Labsystems).
10 a: PHKs were treated with increasing concentrations of lugdunin for 24 hours and 11 subsequently expression of CAMP (LL-37) was analyzed and normalized to actin. […]
14 b+c: PHKs were treated with increasing concentrations of lugdunin for 24 hours and 15 subsequently the concentration of LL-37 and CXCL8 in the supernatant was analyzed . […]
18 d: Representative hematoxylin-eosin-stained paraffin-embedded human 3D skin 19 equivalent. […] After 24 hours, the concentration of LL-37 and CXCL8 in the 21 supernatant was analyzed. […] Significant differences to control treatments were analyzed 23 by an unpaired two-tailed t-test (*P<0.05). […]
26 f: PHKs were treated with 2 µM natural lugdunin, synthetic lugdunin, N -Acetyl lugdunin 27 (grey bars) or 100 ng/mL Pam2Cys or Pam3Cys (white bars) as positive control for 5 28 hours and subsequently expression of CXCL8 was analyzed and normalized to actin. […]

## Lugdunin
HEK293 cells; lugdunin 0.5 µM, medium = 1, two technical replicates
  CXCL8 expression normalized to actin: 1.3 and 1.16
HEK293 cells; lugdunin 1 µM, two technical replicates
  CXCL8 expression normalized to actin: 1.15 and 1.02
HEK293 cells; lugdunin 2 µM, two technical replicates
  CXCL8 expression normalized to actin: 2.66 and 2.46
HEK293 cells; lugdunin 3 µM, two technical replicates
  CXCL8 expression normalized to actin: 1.96 and 1.97
HEK293 cells; lugdunin 5 µM, two technical replicates
  CXCL8 expression normalized to actin: 2.91 and 2.73
HEK293 cells; lugdunin 10 µM, two technical replicates
  CXCL8 expression normalized to actin: 1.84 and 1.91
PHKs
  toxicity to the cell types analyzed (in words): not toxic
